Positions count from the first letter of the chain named. Numbers in names are those of the source.
Tests used:
[1] = test system: R63W mutant of codon optimised P450SriC12; test: Cell-free hydroxylase/dealkylase assay, lyophilised extract incubated with bosentan, UPLC-MS; assay type: biochemical, Streptomyces rimosus NRRL-2234; settings: 0.1 mg/ml bosentan, 27° C., 16-20 hours
Procedure: (§1) Lyophilised material of recombinant P450, ferredoxin and ferredoxin reductase proteins was made as described in Example 3 and reconstituted in high purity water to 90% the original volume. Biocatalysis was performed at 27° C. in the following conditions: 50 mM potassium phosphate pH 7.4, 5 mM MgCl2, 0.1 mg/ml substrate compound such as bosentan, cyclosporine A, diclofenac, ritonavir, tivantinib, valsartan or vanoxerine, native concentration of P450, ferredoxin and ferredoxin reductase as extracted (Example 3). Reactions were initiated by addition of 10× stock of cofactor mixture (50 mM G6P, 10 mM NADP, 10 UN/ml G6PDH) to provide a final volume of e.g., 100 μL. After 16-20 hours, reactions were extracted with an equal volume of acetonitrile, centrifuged to remove precipitated proteins and conversion assessed by UPLC-MS analysis.
(§2) Acidic Analysis Conditions • Column: Acquity UPLC BEH Shield RP18 1.7 μm 2.1 mm i.d. 50 mm length • Column temperature: 45° C. • Solvents: H2O, B: Acetonitrile, both with 0.1% Formic acid • Flow rate: 1.0 ml/min • Gradient (A9%/B %): t=0 mins: 98/2 to 2/98 at t=2.4 mins and held for a further 0.4 mins (2.8 mins total), return to 98/2 over 0.05 mins and re-equilibrated for 0.15 mins (t=3 mins) at a flow-rate of 1.0 mL/min.
(§3) Basic Analysis Conditions • Column: Waters Acquity UPLC BEH C18 1.7 μm 2.1 mm i.d. 50 mm length • Column temperature: 45° C. • Solvents: A: 10 mM ammonium bicarbonate in H2O, B: Acetonitrile • Gradient (A %/B %): t=0 mins: 98/2 to 2/98 at t=2.4 mins and held for a further 0.4 mins (2.8 mins total), return to 98/2 over 0.05 mins and re-equilibrated for 0.15 mins (t=3 mins) at a flow-rate of 1.0 mL/min. • Detector: Waters Acquity UPLC PDA (UV-Vis detection) and Waters Acquity UPLC QDA (MS)
(§4) The resulting plasmids containing the new mutants genes were transformed into recombinant E. coli strains for expression as described in Example 1, cultured and induced as described in Example 2, extracted and processed as described in Example 3 and tested for biocatalytic activity as described in Example 5 above.

[2] = test system: native codon optimised P450SriC12; test: as above; assay type: biochemical, Streptomyces rimosus NRRL-2234; settings: 0.1 mg/ml bosentan, 27° C., 16-20 hours
Procedure: as §1, §2, §3, §4

[3] = test system: P450SriC12-ferredoxinSriF05-ferredoxin reductaseSCF15A expressed in S. lividans HD002; test: Whole-cell biotransformation of ritonavir in 24-well block format; assay type: cell-based, Streptomyces rimosus NRRL-2234; settings: for +16 Da (1.67 min) / +16 Da (1.72 min) / +16 Da (1.76 min) / Parent (1.90 min): ritonavir 100 mg/L
Procedure: (§5) Approximately 10^8 cells of S. lividans HD000 and S. lividans […] inoculated separately into 50 mL of culture medium (containing 5 g/L glycerol; 20 g/L glucose; 5 g/L yeast extract peptone; 2 g/L meat extract; 5 g/L mycological peptone; 1 g/L ammonium phosphate dibasic; 3 g/I sodium chloride; 0.3 g/L magnesium sulphate heptahydrate and 3.5 g/L calcium carbonate, adjusted to pH 7.0 and sterilised at 115° C. for 15 minutes) in 250 mL baffled flasks and incubated shaking at 27° C., 200 rpm for 48 hours. In a 24-well micro-bioreactor block (EnzyScreen, Netherlands), 2.5 mL of S. lividans HD000 and S. lividans HD002 were dosed with ritonavir at a concentration of 100 mg/L. Ritonavir was formulated with 20% hydroxypropyl-p-cyclodextrin (prepared via 1 in 25 dilution of a stock solution of 25 mg ritonavir in 1 mL DMSO). Cultures were time-coursed daily after dosing to assess the production of the target metabolite hydroxy-ritonavir as in Example 5.
(§6) Conversions of ritonavir improved with longer incubations with the drug.

[4] = test system: S. lividans HD000 negative control; test: Whole-cell biotransformation of ritonavir in 24-well block format, empty-vector strain; assay type: cell-based, Streptomyces lividans; settings: for +16 Da (1.67 min) / +16 Da (1.72 min) / +16 Da (1.76 min) / Parent (1.90 min): ritonavir 100 mg/L
Procedure: As a negative control, an empty plJ12551 expression vector was introduced into S. lividans TK24 by triparental conjugation as described above and designated as S. lividans […].
as §5, §6

[5] = Concentration of cytochrome P450 in cell-free extract by carbon monoxide difference spectrum (Omura and Sato); settings: mutant P450SriC12 expressed in E. coli BL21 (DE3)
Procedure: Measurement is performed according to the method of Omura and Sato et al. (J Biol Chem, 239. 1964, 2370). That is to say, cytochrome P450 is analyzed quantitatively using the following formula, based on the difference in the absorbance of the reduced CO versus the reduced difference spectrum at 450 nm and 490 nm.
Measurement of the concentration of cytochrome P450 were performed according to the method of Omura and Sato et al. (J Biol Chem, 239. 1964, 2370). Cytochrome P450 concentrations of cell-free extracts of induced E. coli BL21 (DE3) Rosetta2 & Tuner cells harbouring either pHD05-SriC01, pHD02-SriC12-SriF05, pHD05-SriC14-SriF06, pHD05-SriC20, pHD05-SriC22 or pHD05-SriC51-SriF08 are shown in Table 2. Carbon monoxide difference spectra for P450SriC01, P450SriC12, P450SriC14, P450SriC20, P450SriC22 and P450SriC51 are shown in FIGS. 9, 10, 11, 19, 20 & 21 respectively.
The native and codon optimised P450sriC12 and ferredoxinsriF05 in pHD02-SriC12-SriF05 and pHD02-SriC12CO-SriF05CO respectively were introduced into E. coli BL21 (DE3). The recombinant strains were cultured and proteins were induced as in Example 2. The cell-free extract material was obtained as in Example 3 and carbon monoxide difference spectrums were measure to calculate the concentration of cytochrome P450.
as §4, with “above. The carbon monoxide difference spectrum result of R63W mutant of codon optimised P450SriC12 is shown in FIG. 14 and the cytochrome P450 concentration of mutant P450SriC12 are shown in Table 5.” for “above.”

For COc1ccccc1Oc1c(NS(=O)(=O)c2ccc(C(C)(C)C)cc2)nc(-c2ncccn2)nc1OCCO [bosentan], the hydroxy-bosentan product [1] was “no hydroxy-bosentan product was detected”, the “yield of the O-demethyl-bosentan product” value [1] was 63.2% and the “yield of the O-demethyl-bosentan product” value [2] was 3.3%.

With CC(C)c1nc(CN(C)C(=O)N[C@H](C(=O)N[C@@H](Cc2ccccc2)C[C@H](O)[C@H](Cc2ccccc2)NC(=O)OCc2cncs2)C(C)C)cs1 [ritonavir] the “+16 Da (1.67 min)” value ([3]; sampling 24 hour) was 7.1%, the “+16 Da (1.72 min)” value ([3]; sampling 24 hour) was 18.9% and the “+16 Da (1.76 min)” value ([3]; sampling 24 hour) was 1.4%. For the same molecule, the “Parent (1.90 min)” value ([3]; sampling 24 hour) was 68.5%, the “+16 Da (1.67 min)” value ([3]; sampling 48 hour) was 8.6% and the “+16 Da (1.72 min)” value ([3]; sampling 48 hour) was 23.6%. The “+16 Da (1.76 min)” value ([3]; sampling 48 hour) was 2.8%, the “Parent (1.90 min)” value ([3]; sampling 48 hour) was 58.6% and the “+16 Da (1.67 min)” value ([3]; sampling 120 hour) was 9.1%. The “+16 Da (1.72 min)” value ([3]; sampling 120 hour) was 28.1%, the “+16 Da (1.76 min)” value ([3]; sampling 120 hour) was 1.4% and the “Parent (1.90 min)” value ([3]; sampling 120 hour) was 51.2%. For the same molecule, the “hydroxylation of ritonavir (in words)” value ([3]; whole-cell biotransformation) was “able to hydroxylate ritonavir”, the “+16 Da (1.67 min)” value ([4]; sampling 24 hour) was 0.0% and the “+16 Da (1.72 min)” value ([4]; sampling 24 hour) was 0.0%. The “+16 Da (1.76 min)” value ([4]; sampling 24 hour) was 0.0%, the “Parent (1.90 min)” value ([4]; sampling 24 hour) was 100.0% and the “+16 Da (1.67 min)” value ([4]; sampling 48 hour) was 0.0%. The “+16 Da (1.72 min)” value ([4]; sampling 48 hour) was 0.0%, the “+16 Da (1.76 min)” value ([4]; sampling 48 hour) was 0.0% and the “Parent (1.90 min)” value ([4]; sampling 48 hour) was 100.0%. For the same molecule, the “+16 Da (1.67 min)” value ([4]; sampling 120 hour) was 0.0%, the “+16 Da (1.72 min)” value ([4]; sampling 120 hour) was 0.0% and the “+16 Da (1.76 min)” value ([4]; sampling 120 hour) was 0.0%. The “Parent (1.90 min)” value ([4]; sampling 120 hour) was 100.0% and the “hydroxylation of ritonavir (in words)” value ([4]; whole cells) was “unable to hydroxylate ritonavir”.

B1: Mutant 20 R74Y L171A R183W: R74Y L171A R183W mutant of codon optimised cytochrome SriC12, SEQ ID NO: 255 (protein)
chain: MTEALPFPQDRTCPYDPPAGYQPLRDSRPLSRVTLYDGRPAWVVTGHAESRALLTDPRLSADRQNPAFPSPAPYFETLRKVRTPLLGVDDPEHNTQRRMLIPSFSVKRAAALRPRIQEIVDRLLDAMEQQGPPAELVSAFALPVPSMVICALLGVPYADHELFEGLSRTLAQSADPQEVTEAWDKLEDYFTALVERKRKEPGDGLLDELIAERLDSGELGHRELVRMAMLLLVAGHETTSNMLSLGTFTLLEHPEQFAALRADPSLLPAAVEELLRFLSIADGMVRVATEDIEIGGVTIRADDGVIFSTSVVNRDGAAYASPDTLDWERSARHHVAFGFGVHQCLGQNLARAEMEIAFGALFARFPGLRLAVPAAEIPVKPAHALQGLVELPVTW
modifications: R74Y L171A R183W mutant of SriC12
B1 showed a P450 concentration [5] of 14.1 µM.

B2: Mutant 22 R63W R74Y L171A: R63W R74Y L171A mutant of codon optimised cytochrome SriC12, SEQ ID NO: 257 (protein)
chain: B1 chain with R63W, W183R
modifications: R63W R74Y L171A mutant of SriC12
B2 gave a P450 concentration [5] of 19.9 µM.

B3: Mutant 1 R63W: R63W mutant of codon optimised cytochrome SriC12, SEQ ID NO: 231 (protein)
chain: B1 chain with R63W, Y74R, A171L, W183R
modifications: R63W mutant of SriC12
In the case of B3, the P450 concentration [5] is reported as 17.6 µM.

B4: Mutant 2 R63Y: R63Y mutant of codon optimised cytochrome SriC12, SEQ ID NO: 233 (protein)
chain: B1 chain with R63Y, Y74R, A171L, W183R
modifications: R63Y mutant of SriC12
Molecule B4 has a P450 concentration [5] of 6.2 µM.

Source: patent US11891642B2, “Biocatalytic techniques” (HYPHA DISCOVERY LIMITED, priority 2018, dated 2024)
